Test results: ChEMBL document CHEMBL1145582, “4,5-Disubstituted oxazolidinones: High affinity molecular effectors of RNA function” (Bioorg Med Chem Lett, 2008)
The source made the active and inactive calls. The rule behind the calls is not given here.

Columns and labels:
[1] = Binding affinity at RNAs 3'-Fl-18-Rh-AM1A T box antiterminator model RNA by FRET assay; design: species or system Bacillus subtilis
[2] = Binding affinity at 3'-Fl-18-Rh-C11U T box antiterminator model RNA by FRET assay; design: species or system Bacillus subtilis
[3] = biological target: T1, Guanyl-specific ribonuclease T1 (Aspergillus oryzae (strain ATCC 42149 / RIB 40)) (UniProt P00651); assay: Reduction of Aspergillus oryzae RNase T1 cleavage in position 7 of AM1A T box antiterminator model RNA; design: scale not given: the % may be the effect or the level left
T1 sequence (whole entry): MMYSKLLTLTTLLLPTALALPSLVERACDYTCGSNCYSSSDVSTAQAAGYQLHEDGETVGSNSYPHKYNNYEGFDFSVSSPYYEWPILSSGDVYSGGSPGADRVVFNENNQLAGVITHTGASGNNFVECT

[4] = system: Bacillus subtilis; assay: Reduction of Bacillus subtilis tRNA-glycine-dependent antitermination at 1.3 mM in presence on RNA polymerase; design: scale not given: the % may be the effect or the level left
[5] = Binding affinity at AM1A T box antiterminator model RNA in presence of cognate tRNA; design: species or system Bacillus subtilis
[6] = biological target: T1, Guanyl-specific ribonuclease T1 (Aspergillus oryzae (strain ATCC 42149 / RIB 40)); assay: Reduction of Aspergillus oryzae RNase T1 induced cleavage at position 8 of AM1A T box antiterminator model RNA; design: scale not given: the % may be the effect or the level left
[7] = biological target: T1, Guanyl-specific ribonuclease T1 (Aspergillus oryzae (strain ATCC 42149 / RIB 40)); assay: Enhancement of Aspergillus oryzae RNase T1 cleavage in position 15 of AM1A T box antiterminator model RNA
[8] = biological target: T1, Guanyl-specific ribonuclease T1 (Aspergillus oryzae (strain ATCC 42149 / RIB 40)); assay: Reduction of Aspergillus oryzae RNase T1 cleavage in position 9 of AM1A T box antiterminator model RNA; design: scale not given: the % may be the effect or the level left
[9] = biological target: T1, Guanyl-specific ribonuclease T1 (Aspergillus oryzae (strain ATCC 42149 / RIB 40)); assay: Decrease in Aspergillus oryzae RNase T1 cleavage in AM1A T box antiterminator model RNA

SMILES	Kd [1] [µM]	Kd [2] [µM]	other results
O=C(Cc1ccccc1)OC[C@H]1OC(=O)N[C@@H]1Cc1ccccc1	9	125	
O=C(Cc1ccccc1)OC[C@H]1OC(=O)N[C@@H]1CN1CCN(c2ccccc2)CC1	13	100	Activity [3]: 44%; Activity [4]: 40%; Kd [5]: 64 µM; Activity [6]: 41%; Activity [7]: 70%; Activity [8]: 57%
CC(=O)c1ccc(NC(=O)OC[C@H]2OC(=O)N[C@@H]2CN2CCN(c3ccccc3)CC2)cc1	0.9	< 1	Activity [9]: Active
CCCCCCCC(=O)OC[C@H]1OC(=O)N[C@@H]1CN(C)c1ccccc1	6.6	4.1	
CN(C[C@H]1NC(=O)O[C@@H]1COC(=O)Cc1ccccc1)c1ccccc1	61	122	
O=C(Cc1ccccc1)OC[C@H]1OC(=O)N[C@@H]1CN1CCOCC1	42		
CN(CCc1ccccc1)C[C@H]1NC(=O)O[C@@H]1COC(=O)Cc1ccccc1	114		
